Results published in patent US20240165274A1, “METHODS OF DETECTING SYSTEMIC AMYLOIDOSIS VIA BINDING TO MISFOLDED OR AGGREGATED PROTEIN” (Amydis, Inc., priority 2021, published 2024).

Columns and labels:
[1] = target: T1, aggregated TTR (Homo sapiens, UniProt P02766); test: Fluorescence spectra of Compound 1 with TTR aggregates; conditions: excitation 440 nm; for Fluorescence fold increase: Compound 1 4 μM, emission 565 nm, RFI over Compound 1 alone
Protocol: Several aggregated TTR samples were prepared using different conditions as described below. • Aggregate A was prepared by resuspending TTR in 50 mM glycine buffer at a pH of about 3.6 and further incubating the same for 24 hours at room temperature. • Aggregate B1 was prepared by resuspending TTR in water at a pH of about 7.4, and further incubating the same for 7 days with stirring (200 rpm) maintained at 37° C. • Aggregate B2 was prepared by resuspending TTR in water at a pH of about 7.4, and further incubating the same for 14 days with stirring (200 rpm) maintained at 37° C.
Compound 1 (4 μM) was prepared with or without Aggregate B1 in 1× phosphate-buffered saline (PBS). The absorption, fluorescence, and excitation spectra were taken for both samples. The excitation wavelength was optimized to be 440 nm. The emission spectra thus received were adjusted against a blank solvent control to obtain relative fluorescence intensity (RFI) as a function of wavelengths.
Further, fluorescence spectra were taken on mixtures of Compound I (4 μM) with Aggregate A, B1, or B2, respectively, each at the concentration of 5 μM, at the emission wavelength of 565 nm, when excited at 440 nm. The increases in RFI over Compound 1 alone were calculated and are illustrated in Table 1: […]

[2] = target: T1, aggregated TTR; test: Binding affinity for Compound 1 with aggregated TTR (fluorescence titration, one site specific binding); conditions: 5 μM TTR, 4% DMSO/PBS pH 7.4; Compound 1 0 to 10 μM; RFI at λmax(em); FIG. 2
Protocol: A solution of DMSO/PBS (6 μL DMSO in 144 μL PBS, pH 7.4) was prepared as a blank control. Further, a 250 μM solution of Compound 1 in DMSO was prepared. The following samples were then prepared in triplicate while keeping a constant 5 μM TTR concentration in 4% DMSO/PBS:
Emission spectra were taken for each sample and adjusted against the blank over the range of 445-700 nm. RFI at λmax(em) was determined for each sample. RFI was then plotted against the increasing concentration of Compound 1 over the range of 0 to 10 μM using a one site specific binding algorithm. The binding affinity (Kd) was determined to be 0.3+/−0.1 μM. This is illustrated in FIG. 2.

[3] = test system: TTR deposits in human tissues; test: Staining of FFPE human tissue sections with vitreous amyloid, co-stained with TTR antibody; conditions: compound 60 μM, 30 minutes; adjacent sections stained with Congo red and H&E; present-tense example, binding 'contemplated'
Protocol: The following protocol was adopted for staining Formalin-Fixed Paraffin Embedded (FFPE) tissues: • 1. Deparaffinization and hydration of tissue sections: • Pre-heat @ 60° C. 1 hour • Place slides in holders and treat with the clearing agent xylene (paraffin solvent) and a series of graded ethanol (EtOH) as follows: • i. 100% xylene—5 min • ii. 100% xylene—5 min • iii. 50%/50% xylene/100% EtOH—3 min • iv. 100% EtOH—3 min • v. 95% EtOH—3 min • vi. 70% EtOH—3 min • vii. 50% EtOH—3 min • viii. Water—2×3 min. • 2. Antigen retrieval: incubate in 99% formic acid for 5 minutes. • 3. Wash with distilled water for 5 minutes. Repeat this step two times. • 4. Pre-heat 10 mM citrate buffer pH 6.0 to boiling. • 5. Place slides in staining chamber with heated citrate buffer for 20 minutes. • 6. Cool in water bath. Wash with distilled water for 5 minutes. Repeat this step two times. • 7. […]
Sections from tissues of vitreous amyloid with known TTR mutation (paraffin embedded tissue blocks) and an autopsy eyeball with vitreous amyloid (paraffin embedded organ) are respectively stained with hematoxylin and eosin (H&E) and Congo red to mark regions with amyloidosis. […] It is contemplated that Compound 1 binds to TTR deposits in human tissues and undergoes an increase in fluorescence emission in a manner similar to its increase in fluorescence in vitro in the presence of aggregated TTR as described in earlier examples.

COCCOCCOCCOC(=O)/C(C#N)=C/c1ccc2cc(N3CCCCC3)ccc2c1 [Compound 1]
Fluorescence fold increase ([1]; Aggregate A 5 μM): 4.6 fold | Fluorescence fold increase ([1]; Aggregate B1 5 μM): 2.3 fold | Fluorescence fold increase ([1]; Aggregate B2 5 μM): 2.5 fold | increase of relative fluorescence intensity (RFI) in presence of aggregate ([1]; Compound 1 4 μM with vs without Aggregate B1 in 1× PBS, FIG. 1): about 3.2 | Kd [2]: 300 nM | regions of hyperfluorescence versus areas of amyloidosis [3]: correspond to areas of amyloidosis defined using Congo Red and H&E stains
